Reference: patent US20230340011A1 (Asteroid Therapeutics, priority 2022, published 2023)

Columns and labels:
SREBP-2 = SREBP-2 (Homo sapiens (Human), UniProt Q12772); assay: In vitro assay SREBP-2: PathHunter U2OS SREBP-2 Nuclear Translocation Cell Line, U18666A-stimulated; format: cell-based; conditions: PathHunter U2OS SREBP-2 nuclear translocation cells, U18666A 10 μM, overnight (16 hours)
LXRβ = LXRβ (Homo sapiens (Human), UniProt P55055); assay: In vitro assay LXRβ: PathHunter NHR CHO cells, LXRβ / Steroid Receptor Co-activator Peptide enzyme fragment complementation; format: cell-based; conditions: PathHunter NHR CHO cells, full-length human LXRβ and SRCP, chemiluminescent signal; read-out: LXRβ PPI
LXRβ, sequence (P55055 whole entry, the tested form may be a part): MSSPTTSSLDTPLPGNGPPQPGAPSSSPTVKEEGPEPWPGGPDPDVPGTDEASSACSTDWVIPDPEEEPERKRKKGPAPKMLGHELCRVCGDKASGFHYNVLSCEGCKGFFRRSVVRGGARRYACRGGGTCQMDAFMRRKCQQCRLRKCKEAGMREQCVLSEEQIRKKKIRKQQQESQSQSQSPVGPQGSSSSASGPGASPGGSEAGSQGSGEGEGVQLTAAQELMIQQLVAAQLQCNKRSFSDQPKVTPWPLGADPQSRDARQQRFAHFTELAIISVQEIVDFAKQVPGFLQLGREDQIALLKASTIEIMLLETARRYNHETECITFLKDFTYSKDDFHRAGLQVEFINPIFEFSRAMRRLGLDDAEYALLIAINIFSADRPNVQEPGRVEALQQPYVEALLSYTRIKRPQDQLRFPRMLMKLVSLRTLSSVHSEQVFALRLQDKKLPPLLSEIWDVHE
Method in brief: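 Enzyme fragment complementation read-out: CHO cells stably expressing ProLink-tagged full-length human LXRβ plus nuclear enzyme acceptor–SRCP fusion, seeded and held overnight at 37° C. Medium with charcoal-dextran filtered serum; final vehicle 1%. Chemiluminescence measured after signal generation.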

SMILES | IC50 (SREBP-2) [nM] | EC50 (LXRβ) [nM]
C[C@H](CCC(=O)N1CCN(c2nccc3ccncc23)CC1)[C@H]1CC[C@H]2[C@@H]3CC=C4C[C@@H](O)CC[C@]4(C)[C@H]3CC[C@]12C [Example 628, (R)-1-(4-(2,7-naphthyridin-1-yl)piperazin-1-yl)-4-((3S,8S,9S,10R,13R,14S,17R)-3-hydroxy-10,13-dimethyl-2,3,4,7,8,9,10,11,12,13,14,15,16,17-tetradecahydro-1H-cyclopenta[a]phenanthren-17-yl)pentan-1-one] | < 250 | > 10000
C[C@H](CCC(=O)N1CCN(C(=O)c2cnccn2)[C@@H](C)C1)[C@H]1CC[C@H]2[C@@H]3CC=C4C[C@@H](O)CC[C@]4(C)[C@H]3CC[C@]12C [Example 568, (R)-4-((3S,8S,9S,10R,13R,14S,17R)-3-hydroxy-10,13-dimethyl-2,3,4,7,8,9,10,11,12,13,14,15,16,17-tetradecahydro-1H-cyclopenta[a]phenanthren-17-yl)-1-((S)-3-methyl-4-(pyrazine-2-carbonyl)piperazin-1-yl)pentan-1-one] | < 250 | > 10000
C[C@H](CCC(=O)N1CCN(C(=O)c2cn(C)nn2)C[C@@H]1C)[C@H]1CC[C@H]2[C@@H]3CC=C4C[C@@H](O)CC[C@]4(C)[C@H]3CC[C@]12C [Example 587, (R)-4-((3S,8S,9S,10R,13R,14S,17R)-3-hydroxy-10,13-dimethyl-2,3,4,7,8,9,10,11,12,13,14,15,16,17-tetradecahydro-1H-cyclopenta[a]phenanthren-17-yl)-1-((S)-2-methyl-4-(1-methyl-1H-1,2,3-triazole-4-carbonyl)piperazin-1-yl)pentan-1-one] | < 250 | > 10000
COc1ccc2ccnc(N3CCN(C(=O)CC[C@@H](C)[C@H]4CC[C@H]5[C@@H]6CC=C7C[C@@H](O)CC[C@]7(C)[C@H]6CC[C@]45C)CC3)c2c1 [Example 627, (R)-4-((3S,8S,9S,10R,13R,14S,17R)-3-hydroxy-10,13-dimethyl-2,3,4,7,8,9,10,11,12,13,14,15,16,17-tetradecahydro-1H-cyclopenta[a]phenanthren-17-yl)-1-(4-(7-methoxyisoquinolin-1-yl)piperazin-1-yl)pentan-1-one] | < 250 | > 10000
CCC(=O)N1CCN(C(=O)CC[C@@H](C)[C@H]2CC[C@H]3[C@@H]4CC=C5C[C@@H](O)CC[C@]5(C)[C@H]4CC[C@]23C)[C@@H](C)C1 [Example 583, (4R)-4-[(1R,3aS,3bS,7S,9aR,9bS,11aR)-7-hydroxy-9a,11a-dimethyl-1H,2H,3H,3aH,3bH,4H,6H,7H,8H,9H,9aH,9bH,10H,11H,11aH-cyclopenta[a]phenanthren-1-yl]-1-[(2S)-2-methyl-4-propanoylpiperazin-1-yl]pentan-1-one] | < 250 | > 10000
C[C@H](CCC(=O)N1CCN(S(N)(=O)=O)CC1)[C@H]1CC[C@H]2[C@@H]3CC=C4C[C@@H](O)CC[C@]4(C)[C@H]3CC[C@]12C [Example 359, 4-[(4R)-4-[(1R,3aS,3bS,7S,9aR,9bS,11aR)-7-hydroxy-9a,11a-dimethyl-1H,2H,3H,3aH,3bH,4H,6H,7H,8H,9H,9aH,9bH,10H,11H,11aH-cyclopenta[a]phenanthren-1-yl]pentanoyl]piperazine-1-sulfonamide] | < 250 | > 10000
[C-]#[N+]c1cccnc1CC[C@@H](C)[C@H]1CC[C@H]2[C@@H]3CC=C4C[C@@H](O)CC[C@]4(C)[C@H]3CC[C@]12C [Example 638, (3S,8S,9S,10R,13R,14S,17R)-17-((R)-4-(3-isocyanopyridin-2-yl)butan-2-yl)-10,13-dim ethyl-2,3,4,7,8,9,10,11,12,13,14,15,16,17-tetradecahydro-1H-cyclopenta[a]phenanthren-3-ol] | < 250 | 250 to 1000
C[C@H](CCC(=O)N1CCN(c2ccnc(OCCO)n2)CC1)[C@H]1CC[C@H]2[C@@H]3CC=C4C[C@@H](O)CC[C@]4(C)[C@H]3CC[C@]12C [Example 564, (4R)-4-[(1R,3aS,3bS,7S,9aR,9bS,11aR)-7-hydroxy-9a,11a-dimethyl-1H,2H,3H,3aH,3bH,4H,6H,7H,8H,9H,9aH,9bH,10H,11H,11aH-cyclopenta[a]phenanthren-1-yl]-1-{4-[2-(2-hydroxyethoxy)pyrimidin-4-yl]piperazin-1-yl}pentan-1-one] | < 250 | > 10000
C[C@H](CCC(=O)N1CCN(C(=O)c2cnn(C)c2)C[C@@H]1C)[C@H]1CC[C@H]2[C@@H]3CC=C4C[C@@H](O)CC[C@]4(C)[C@H]3CC[C@]12C [Example 578, (R)-4-((3S,8S,9S,10R,13R,14S,17R)-3-hydroxy-10,13-dimethyl-2,3,4,7,8,9,10,11,12,13,14,15,16,17-tetradecahydro-1H-cyclopenta[a]phenanthren-17-yl)-1-((S)-2-methyl-4-(1-methyl-1H-pyrazole-4-carbonyl)piperazin-1-yl)pentan-1-one] | < 250 | > 10000
C[C@H](COC(=O)N1CCN(C(=O)c2cnn(C)c2)CC1)[C@H]1CC[C@H]2[C@@H]3CC=C4C[C@@H](O)CC[C@]4(C)[C@H]3CC[C@]12C [Example 596, (S)-2-((3S,8S,9S,10R,13S,14S,17R)-3-hydroxy-10,13-dimethyl-2,3,4,7,8,9,10,11,12,13,14,15,16,17-tetradecahydro-1H-cyclopenta[a]phenanthren-17-yl)propyl 4-(1-methyl-1H-pyrazole-4-carbonyl)piperazine-1-carboxylate] | < 250 | > 10000
C[C@H](CCC(=O)N1CCN(C(=O)C2CC2)[C@@H](C)C1)[C@H]1CC[C@H]2[C@@H]3CC=C4C[C@@H](O)CC[C@]4(C)[C@H]3CC[C@]12C [Example 650, (R)-1-((S)-4-(cyclopropanecarbonyl)-3-methylpiperazin-1-yl)-4-((3S,8S,9S,10R,13R,14S,17R)-3-hydroxy-10,13-dimethyl-2,3,4,7,8,9,10,11,12,13,14,15,16,17-tetradecahydro-1H-cyclopenta[a]phenanthren-17-yl)pentan-1-one] | < 250 | > 10000
CCn1c(CC[C@@H](C)[C@H]2CC[C@H]3[C@@H]4CC=C5C[C@@H](O)CC[C@]5(C)[C@H]4CC[C@]23C)n[nH]c1=S [Example 353, 4-ethyl-5-((R)-3-((3S,8S,9S,10R,13R,14S,17R)-3-hydroxy-10,13-dimethyl-2,3,4,7,8,9,10,11,12,13,14,15,16,17-tetradecahydro-1H-cyclopenta[a]phenanthren-17-yl)butyl)-2,4-dihydro-3H-1,2,4-triazole-3-thione] | < 250 | > 10000
COC(=O)N1CCN(C(=O)CC[C@@H](C)[C@H]2CC[C@H]3[C@@H]4CC=C5C[C@](O)(C(F)(F)F)CC[C@]5(C)[C@H]4CC[C@]23C)CC1 [Example 285, methyl 4-((R)-4-((3S,8S,9S,10R,13R,14S,17R)-3-hydroxy-10,13-dimethyl-3-(trifluoromethyl)-2,3,4,7,8,9,10,11,12,13,14,15,16,17-tetradecahydro-1H-cyclopenta[a]phenanthren-17-yl)pentanoyl)piperazine-1-carboxylate] | 1000 to 10000 | > 10000
COC(=O)N1CCC(C(=O)NC[C@@H](C)[C@H]2CC[C@H]3[C@@H]4CC=C5C[C@@H](O)CC[C@]5(C)[C@H]4CC[C@]23C)CC1 [Example 591, Methyl 4-{[(2S)-2-[(1R,3aS,3bS,7S,9aR,9bS,11aS)-7-hydroxy-9a,11a-dimethyl-1H,2H,3H,3aH,3bH,4H,6H,7H,8H,9H,9aH,9bH,10H,11H,11aH-cyclopenta[a]phenanthren-1-yl]propyl]carbamoyl}piperidine-1-carboxylate] | < 250 | > 10000
CNC(=O)N1CCN(C(=O)CC[C@@H](C)[C@H]2CC[C@H]3[C@@H]4CC=C5C[C@@H](O)CC[C@]5(C)[C@H]4CC[C@]23C)CC1 [Example 337, 4-[(4R)-4-[(1R,3aS,3bS,7S,9aR,9bS,11aR)-7-hydroxy-9a,11a-dimethyl-1H,2H,3H,3aH,3bH,4H,6H,7H,8H,9H,9aH,9bH,10H,11H,11aH-cyclopenta[a]phenanthren-1-yl]pentanoyl]-N-methylpiperazine-1-carboxamide] | < 250 | > 10000
C[C@H](COc1ccncc1)[C@H]1CC[C@H]2[C@@H]3CC=C4C[C@@H](O)CC[C@]4(C)[C@H]3CC[C@]12C [Example 181, (8S,9S,10R,13S,14S,17R)-10,13-dimethyl-17-((S)-1-(pyridin-4-yloxy)propan-2-yl)-2,3,4,7,8,9,10,11,12,13,14,15,16,17-tetradecahydro-1H-cyclopenta[a]phenanthren-3-ol] | 250 to 1000 | > 10000
C[C@H](CCC(=O)N1CCN(C(=O)OC2CC2)[C@@H](C)C1)[C@H]1CC[C@H]2[C@@H]3CC=C4C[C@@H](O)CC[C@]4(C)[C@H]3CC[C@]12C [Example 570, Cyclopropyl(S)-4-((R)-4-((3S,8S,9S,10R,13R,14S,17R)-3-hydroxy-10,13-dimethyl-2,3,4,7,8,9,10,11,12,13,14,15,16,17-tetradecahydro-1H-cyclopenta[a]phenanthren-17-yl)pentanoyl)-2-methylpiperazine-1-carboxylate] | < 250 | > 10000
C[C@H](CCC(=O)N1CCC2(CCCO2)CC1)[C@H]1CC[C@H]2[C@@H]3CC=C4C[C@@H](O)CC[C@]4(C)[C@H]3CC[C@]12C [Example 88, (R)-4-((3S,8S,9S,10R,13R,14S,17R)-3-hydroxy-10,13-dimethyl-2,3,4,7,8,9,10,11,12,13,14,15,16,17-tetradecahydro-1H-cyclopenta[a]phenanthren-17-yl)-1-(1-oxa-δ-azaspiro[4.5]decan-δ-yl)pentan-1-one] | < 250 | > 10000
